Source: US10786547B2, “Compositions, articles of manufacture and methods for treating cancer” (Biokine Therapeutics Ltd., priority 2015, dated 2020)
“Also recorded” adds a separate entry of the source. [ ]: non-standard residue; d: D form. The star is where a group is joined. Benzoyl(4-F) = O=C(c1ccc(F)cc1)*; Cit = NC(=O)NCCC[C@H](N)C(=O)O

How the values were obtained:
[1] = system: immune cells including immature stem/progenitor cells, T cells and NK cells; experiment: in-vivo administration, mobilization of immune and stem/progenitor cells; settings: to the peripheral blood
[2] = in vivo
[3] = biological target: CXCR4 receptor (Homo sapiens, UniProt P61073); settings: cited from earlier work
Sequence of CXCR4 receptor (P61073 whole entry): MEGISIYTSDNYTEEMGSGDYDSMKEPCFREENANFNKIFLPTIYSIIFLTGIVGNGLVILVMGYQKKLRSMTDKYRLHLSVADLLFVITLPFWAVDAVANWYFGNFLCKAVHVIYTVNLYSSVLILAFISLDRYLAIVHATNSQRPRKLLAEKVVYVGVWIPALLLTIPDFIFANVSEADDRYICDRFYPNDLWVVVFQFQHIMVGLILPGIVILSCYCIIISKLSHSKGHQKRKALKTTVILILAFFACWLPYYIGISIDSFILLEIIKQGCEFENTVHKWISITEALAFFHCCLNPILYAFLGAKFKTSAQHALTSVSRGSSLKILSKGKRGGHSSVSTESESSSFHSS

[4] = system: long term repopulating stem cells; settings: mice, single BL-8040 injection; cited from earlier work
[5] = system: CD34+ hematopoietic stem/progenitor cells (HSPC); settings: multiple myeloma patients, combined treatment of BL-8040 and G-CSF, single aphaeresis procedure; cited from earlier work
[6] = system: myeloid leukemia, hematopoietic tumors and non-small cell lung cancer; settings: cited from earlier work
[7] = system: immune cells including immature stem/progenitor cells, T cells and NK cells; settings: "It has been shown"; cited from earlier work

## 4F-benzoyl-Arg-Arg-Nal-Cys-Tyr-Cit-Lys-DLys-Pro-Tyr-Arg-Cit-Cys-Arg-NH2 ({Benzoyl(4-F)}-RR[Nal]CY[Cit]K[dK]PYR[Cit]CR-NH2; cysteine pairing not given here) [BL-8040]
[1]
  mobilization of immune cells: induces rapid mobilization of a variety of immune cells including immature stem/progenitor cells as well as fully differentiated T cells and NK cells; also recorded: induce rapid mobilization of hematopoietic stem/progenitor cells and mesenchymal stem cells as well as T cells, B cells, NK cells, NKT cells and ImDC to the peripheral blood
[2]
  safety and tolerability: safe and well tolerated
[3]; CXCR4 receptor
  receptor occupancy: long receptor occupancy
[3]
  affinity of binding to the CXCR4 receptor: high affinity
[4]
  mobilization of long term repopulating stem cells: mobilized long term repopulating stem cells sufficient for transplantation
[5]
  collection of CD34+ hematopoietic stem/progenitor cells (HSPC): enabled the collection of high number of CD34+ hematopoietic stem/progenitor cells (HSPC) in a single aphaeresis procedure
[6]
  toxicity against tumors: toxic against several tumors such as myeloid leukemia, hematopoietic tumors and non-small cell lung cancer
[7]
  mobilization of CD34+ hematopoietic stem/progenitor cells (HSPC): induces mobilization of CD34+ hematopoietic stem/progenitor cells (HSPC) that can be further used for transplantation
